This test has as its target T1, PD-1/PD-L1 (Homo sapiens, UniProt Q9NZQ7).
T1 construct: TVMV protease site linker (C); made in house; host or cells: HEK293T cells
Put plainly: PD-1/PD-L1 Homogenous Time-Resolved Fluorescence (HTRF) binding assay. From the text: The ability of the compounds of formula (I) to bind to PD-L1 was investigated using a PD-1/PD-L1 Homogenous Time-Resolved Fluorescence (HTRF) binding assay.
The interaction of PD-1 and PD-L1 can be assessed using soluble, purified preparations of the extracellular domains of the two proteins. The PD-1 and PD-L1 protein extracellular domains were expressed as fusion proteins with detection tags, for PD-1, the tag was the Fc portion of Immunoglobulin (PD-1-Ig) and for PD-L1 it was the 6 histidine motif (PD-L1-His). All binding studies were performed in an HTRF assay buffer consisting of dPBS supplemented with 0.1% […] bovine serum albumin and 0.05% (v/v) Tween-20. For the h/PD-L1-His binding assay, inhibitors were pre-incubated with PD-L1-His (10 nM final) for 15 m in 4 μl of assay buffer, followed by addition of PD-1-Ig (20 nM final) in 1 μl of assay buffer and further incubation for 15 m. HTRF detection was achieved using europium crypate-labeled anti-Ig (1 nM final) and allophycocyanin (APC) labeled anti-His (20 nM final). Antibodies were diluted in HTRF detection buffer and 5 μl was dispensed on top of the binding reaction. […] Additional binding assays were established between the human proteins PD-1-Ig/PD-L2-His (20 & 5 nM, respectively) and CD80-His/PD-L1-Ig (100 & 10 nM, respectively). […]
For orientation: In TR-FRET formats the signal depends on donor and acceptor labels being close together.

Where [1] appears, read: PD-L1-His 10 nM pre-incubated with inhibitor, PD-1-Ig 20 nM, read-out: HTRF IC50.

Read-outs that look alike come from different tables or passages of the source. Positions of bridges follow the written chain, without caps; N, C: chain ends. Non-standard residues stand in square brackets, D forms with d. Residues, ends and D or L forms follow the SMILES beside them. *: point of attachment. Trp(1-CH2COOH) = N[C@@H](Cc1cn(CC(=O)O)c2ccccc12)C(=O)O; X65 = CC(C)(C)OC(=O)Nc1ccc(NC(=S)*)cc1; X95 = O=[N+]([O-])c1cccc(NC(=S)*)c1; X50 = COc1cc(NC(=S)*)ccc1-c1cnco1; Hyp = O=C(O)[C@@H]1C[C@@H](O)CN1; X44 = FC(F)(F)c1ccc(NC(=S)*)cc1; NMeNle = CCCC[C@H](NC)C(=O)O; X85 = S=C(Nc1c(Cl)cccc1Cl)*; X9 = Fc1ccc(NC(=S)*)c(Cl)c1; NMeA = CN[C@@H](C)C(=O)O; Dab = NCC[C@H](N)C(=O)O; Dap = NC[C@H](N)C(=O)O

Data on twelve compounds can be found in patent publication US20220389061A1, “IMMUNOMODULATORS” (priority 2019, published 2022).

T1 sequence (Q9NZQ7 18-239): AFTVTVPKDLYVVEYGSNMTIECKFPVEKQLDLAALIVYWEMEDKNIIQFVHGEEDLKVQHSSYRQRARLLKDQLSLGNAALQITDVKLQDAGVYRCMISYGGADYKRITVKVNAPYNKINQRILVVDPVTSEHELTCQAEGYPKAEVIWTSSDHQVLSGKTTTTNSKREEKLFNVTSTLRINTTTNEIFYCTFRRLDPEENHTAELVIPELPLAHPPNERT

One may read the IC50 as the concentration at which inhibition is half-maximal. As for `CCCC[C@H]1C(=O)N(C)[C@@H](CCCC)C(=O)N[C@@H](CC(C)C)C(=O)N[C@H](C(=O)NCC(N)=O)CSCC(=O)N[C@@H](Cc2ccc(O)cc2)C(=O)N(C)[C@@H](C)C(=O)N[C@@H](CC(N)=O)C(=O)N2CCC[C@H]2C(=O)N[C@@H](CNC(=S)Nc2ccc(-c3cnco3)c(OC)c2)C(=O)N[C@@H](CC(C)C)C(=O)N2C[C@H](O)C[C@H]2C(=O)N[C@@H](Cc2c[nH]c3ccccc23)C(=O)N[C@@H](CCN)C(=O)N[C@@H](Cc2cn(CC(=O)O)c3ccccc23)C(=O)N1C` [Example 1028] ({CH2CO}-Y[NMeA]NP[Dap](X50)L[Hyp]W[Dab][Trp(1-CH2COOH)][NMeNle][NMeNle]LCG-NH2; thioether N-14), the IC50 under setting [1] is 4.4 nM.
Same read-out and setting: to `CCCC[C@H]1C(=O)N(C)[C@@H](CCCC)C(=O)N[C@@H](CC(C)C)C(=O)N[C@H](C(=O)NCC(N)=O)CSCC(=O)N[C@@H](Cc2ccc(O)cc2)C(=O)N(C)[C@@H](C)C(=O)N[C@@H](CC(N)=O)C(=O)N2CCC[C@H]2C(=O)N[C@@H](CNC(=S)Nc2ccc(-c3cnco3)c(OC)c2)C(=O)N[C@@H](CC(C)C)C(=O)N2C[C@H](O)C[C@H]2C(=O)N[C@@H](Cc2c[nH]c3ccccc23)C(=O)N[C@@H](CCNC(=S)Nc2ccc(-c3cnco3)c(OC)c2)C(=O)N[C@@H](Cc2cn(CC(=O)O)c3ccccc23)C(=O)N1C` [Example 1029] ({CH2CO}-Y[NMeA]NP[Dap](X50)L[Hyp]W[Dab](X50)[Trp(1-CH2COOH)][NMeNle][NMeNle]LCG-NH2; thioether N-14) belongs 3.1 nM; to `CCCC[C@H]1C(=O)N(C)[C@@H](CCCC)C(=O)N[C@@H](CC(C)C)C(=O)N[C@H](C(=O)NCC(N)=O)CSCC(=O)N[C@@H](Cc2ccc(O)cc2)C(=O)N(C)[C@@H](C)C(=O)N[C@@H](CC(N)=O)C(=O)N2CCC[C@H]2C(=O)N[C@@H](CNC(=S)Nc2ccc(F)cc2Cl)C(=O)N[C@@H](CC(C)C)C(=O)N2C[C@H](O)C[C@H]2C(=O)N[C@@H](Cc2c[nH]c3ccccc23)C(=O)N[C@@H](CCN)C(=O)N[C@@H](Cc2cn(CC(=O)O)c3ccccc23)C(=O)N1C` [Example 1030] ({CH2CO}-Y[NMeA]NP[Dap](X9)L[Hyp]W[Dab][Trp(1-CH2COOH)][NMeNle][NMeNle]LCG-NH2; thioether N-14), 2.6 nM; to `CCCC[C@H]1C(=O)N(C)[C@@H](CCCC)C(=O)N[C@@H](CC(C)C)C(=O)N[C@H](C(=O)NCC(N)=O)CSCC(=O)N[C@@H](Cc2ccc(O)cc2)C(=O)N(C)[C@@H](C)C(=O)N[C@@H](CC(N)=O)C(=O)N2CCC[C@H]2C(=O)N[C@@H](CNC(=S)Nc2ccc(F)cc2Cl)C(=O)N[C@@H](CC(C)C)C(=O)N2C[C@H](O)C[C@H]2C(=O)N[C@@H](Cc2c[nH]c3ccccc23)C(=O)N[C@@H](CCNC(=S)Nc2ccc(F)cc2Cl)C(=O)N[C@@H](Cc2cn(CC(=O)O)c3ccccc23)C(=O)N1C` [Example 1031] ({CH2CO}-Y[NMeA]NP[Dap](X9)L[Hyp]W[Dab](X9)[Trp(1-CH2COOH)][NMeNle][NMeNle]LCG-NH2; thioether N-14), 2.8 nM.
Regarding `CCCC[C@H]1C(=O)N(C)[C@@H](CCCC)C(=O)N[C@@H](CC(C)C)C(=O)N[C@H](C(=O)NCC(N)=O)CSCC(=O)N[C@@H](Cc2ccc(O)cc2)C(=O)N(C)[C@@H](C)C(=O)N[C@@H](CC(N)=O)C(=O)N2CCC[C@H]2C(=O)N[C@@H](CNC(=S)Nc2ccc(C(F)(F)F)cc2)C(=O)N[C@@H](CC(C)C)C(=O)N2C[C@H](O)C[C@H]2C(=O)N[C@@H](Cc2c[nH]c3ccccc23)C(=O)N[C@@H](CCN)C(=O)N[C@@H](Cc2cn(CC(=O)O)c3ccccc23)C(=O)N1C` [Example 1034] ({CH2CO}-Y[NMeA]NP[Dap](X44)L[Hyp]W[Dab][Trp(1-CH2COOH)][NMeNle][NMeNle]LCG-NH2; thioether N-14), under setting [1], the IC50 worked out at 3.5 nM.
Take `CCCC[C@H]1C(=O)N(C)[C@@H](CCCC)C(=O)N[C@@H](CC(C)C)C(=O)N[C@H](C(=O)NCC(N)=O)CSCC(=O)N[C@@H](Cc2ccc(O)cc2)C(=O)N(C)[C@@H](C)C(=O)N[C@@H](CC(N)=O)C(=O)N2CCC[C@H]2C(=O)N[C@@H](CNC(=S)Nc2ccc(C(F)(F)F)cc2)C(=O)N[C@@H](CC(C)C)C(=O)N2C[C@H](O)C[C@H]2C(=O)N[C@@H](Cc2c[nH]c3ccccc23)C(=O)N[C@@H](CCNC(=S)Nc2ccc(C(F)(F)F)cc2)C(=O)N[C@@H](Cc2cn(CC(=O)O)c3ccccc23)C(=O)N1C` [Example 1035] ({CH2CO}-Y[NMeA]NP[Dap](X44)L[Hyp]W[Dab](X44)[Trp(1-CH2COOH)][NMeNle][NMeNle]LCG-NH2; thioether N-14): under setting [1], the concentration for half-maximal inhibition (IC50) came to 2.1 nM.
As to `CCCC[C@H]1C(=O)N(C)[C@@H](CCCC)C(=O)N[C@@H](CC(C)C)C(=O)N[C@H](C(=O)NCC(N)=O)CSCC(=O)N[C@@H](Cc2ccc(O)cc2)C(=O)N(C)[C@@H](C)C(=O)N[C@@H](CC(N)=O)C(=O)N2CCC[C@H]2C(=O)N[C@@H](CNC(=S)Nc2cccc([N+](=O)[O-])c2)C(=O)N[C@@H](CC(C)C)C(=O)N2C[C@H](O)C[C@H]2C(=O)N[C@@H](Cc2c[nH]c3ccccc23)C(=O)N[C@@H](CCNC(=S)Nc2cccc([N+](=O)[O-])c2)C(=O)N[C@@H](Cc2cn(CC(=O)O)c3ccccc23)C(=O)N1C` [Example 1036] ({CH2CO}-Y[NMeA]NP[Dap](X95)L[Hyp]W[Dab](X95)[Trp(1-CH2COOH)][NMeNle][NMeNle]LCG-NH2; thioether N-14), the IC50 is 2.6 nM.
In the case of `CCCC[C@H]1C(=O)N(C)[C@@H](CCCC)C(=O)N[C@@H](CC(C)C)C(=O)N[C@H](C(=O)NCC(N)=O)CSCC(=O)N[C@@H](Cc2ccc(O)cc2)C(=O)N(C)[C@@H](C)C(=O)N[C@@H](CC(N)=O)C(=O)N2CCC[C@H]2C(=O)N[C@@H](CNC(=S)Nc2cccc([N+](=O)[O-])c2)C(=O)N[C@@H](CC(C)C)C(=O)N2C[C@H](O)C[C@H]2C(=O)N[C@@H](Cc2c[nH]c3ccccc23)C(=O)N[C@@H](CCN)C(=O)N[C@@H](Cc2cn(CC(=O)O)c3ccccc23)C(=O)N1C` [Example 1037] ({CH2CO}-Y[NMeA]NP[Dap](X95)L[Hyp]W[Dab][Trp(1-CH2COOH)][NMeNle][NMeNle]LCG-NH2; thioether N-14), under setting [1], the IC50 is 2.8 nM.
Regarding `CCCC[C@H]1C(=O)N(C)[C@@H](CCCC)C(=O)N[C@@H](CC(C)C)C(=O)N[C@H](C(=O)NCC(N)=O)CSCC(=O)N[C@@H](Cc2ccc(O)cc2)C(=O)N(C)[C@@H](C)C(=O)N[C@@H](CC(N)=O)C(=O)N2CCC[C@H]2C(=O)N[C@@H](CNC(=S)Nc2c(Cl)cccc2Cl)C(=O)N[C@@H](CC(C)C)C(=O)N2C[C@H](O)C[C@H]2C(=O)N[C@@H](Cc2c[nH]c3ccccc23)C(=O)N[C@@H](CCN)C(=O)N[C@@H](Cc2cn(CC(=O)O)c3ccccc23)C(=O)N1C` [Example 1038] ({CH2CO}-Y[NMeA]NP[Dap](X85)L[Hyp]W[Dab][Trp(1-CH2COOH)][NMeNle][NMeNle]LCG-NH2; thioether N-14), under setting [1], the IC50 is 2.4 nM.
As to `CCCC[C@H]1C(=O)N(C)[C@@H](CCCC)C(=O)N[C@@H](CC(C)C)C(=O)N[C@H](C(=O)NCC(N)=O)CSCC(=O)N[C@@H](Cc2ccc(O)cc2)C(=O)N(C)[C@@H](C)C(=O)N[C@@H](CC(N)=O)C(=O)N2CCC[C@H]2C(=O)N[C@@H](CNC(=S)Nc2c(Cl)cccc2Cl)C(=O)N[C@@H](CC(C)C)C(=O)N2C[C@H](O)C[C@H]2C(=O)N[C@@H](Cc2c[nH]c3ccccc23)C(=O)N[C@@H](CCNC(=S)Nc2c(Cl)cccc2Cl)C(=O)N[C@@H](Cc2cn(CC(=O)O)c3ccccc23)C(=O)N1C` [Example 1039] ({CH2CO}-Y[NMeA]NP[Dap](X85)L[Hyp]W[Dab](X85)[Trp(1-CH2COOH)][NMeNle][NMeNle]LCG-NH2; thioether N-14), under setting [1], the IC50 was determined as 0.6 nM.
With `CCCC[C@H]1C(=O)N(C)[C@@H](CCCC)C(=O)N[C@@H](CC(C)C)C(=O)N[C@H](C(=O)NCC(N)=O)CSCC(=O)N[C@@H](Cc2ccc(O)cc2)C(=O)N(C)[C@@H](C)C(=O)N[C@@H](CC(N)=O)C(=O)N2CCC[C@H]2C(=O)N[C@@H](CNC(=S)Nc2ccc(NC(=O)OC(C)(C)C)cc2)C(=O)N[C@@H](CC(C)C)C(=O)N2C[C@H](O)C[C@H]2C(=O)N[C@@H](Cc2c[nH]c3ccccc23)C(=O)N[C@@H](CCN)C(=O)N[C@@H](Cc2cn(CC(=O)O)c3ccccc23)C(=O)N1C` [Example 1040] ({CH2CO}-Y[NMeA]NP[Dap](X65)L[Hyp]W[Dab][Trp(1-CH2COOH)][NMeNle][NMeNle]LCG-NH2; thioether N-14), the IC50 under setting [1] is 3.9 nM.
Still for that read-out and setting: the result for `CCCC[C@H]1C(=O)N(C)[C@@H](CCCC)C(=O)N[C@@H](CC(C)C)C(=O)N[C@H](C(=O)NCC(N)=O)CSCC(=O)N[C@@H](Cc2ccc(O)cc2)C(=O)N(C)[C@@H](C)C(=O)N[C@@H](CC(N)=O)C(=O)N2CCC[C@H]2C(=O)N[C@@H](CNC(=S)Nc2ccc(NC(=O)OC(C)(C)C)cc2)C(=O)N[C@@H](CC(C)C)C(=O)N2C[C@H](O)C[C@H]2C(=O)N[C@@H](Cc2c[nH]c3ccccc23)C(=O)N[C@@H](CCNC(=S)Nc2ccc(NC(=O)OC(C)(C)C)cc2)C(=O)N[C@@H](Cc2cn(CC(=O)O)c3ccccc23)C(=O)N1C` [Example 1041] ({CH2CO}-Y[NMeA]NP[Dap](X65)L[Hyp]W[Dab](X65)[Trp(1-CH2COOH)][NMeNle][NMeNle]LCG-NH2; thioether N-14) reads 2.3 nM.
